Reference: patent US4990617A, “N-oxide prodrug derivatives of 3-hydroxy morphinans and partial morphinans and derivatives” (E. I. Du Pont de Nemours and Company, priority 1989, dated 1991)
Counter-ions that a name gives are not always drawn. Like-named read-outs stand apart in the source and are kept apart here.

Tests used:
[1] = Plasma naltrexone concentration after oral dosing in dogs; type: in vivo; conditions: dog, normalized for dose
Protocol: (§1) Among the experiments used to evaluate the N-oxide prodrugs of the instant invention were measurements of their reduction rates in vitro by various biological media from rats, dogs, and humans, and drug bioavailability in rats and dogs administered oral doses of the prodrug. Drug concentration was determined after solvent extraction, using high pressure liquid chromatography analytical procedures.
(§2) Rats and dogs were administered the parent drug intravenously and orally, and the prodrugs were administered orally. Usually, doses were administered as aqueous solutions prepared immediately before dosing. Plasma was collected and frozen until analysis of drug concentration. The area under the plasma drug concentration versus time curve (AUC) was calculated for each animal. […]. Relative bioavailability (RB) of parent drug was determined by comparing the bioavailability from orally administered prodrug F(pro) with the bioavailability from orally administered parent drug F(drug). [formula]

[2] = literature, cited from earlier work
[3] = Plasma naloxone concentration after oral dosing in dogs; type: in vivo; conditions: dog; for concentration at 0.5 h / concentration at 1 h / concentration at 2 h / concentration at 3 h / concentration at 4 h / concentration at 6 h / concentration at 8 h: in vivo, equimolar oral doses, read-out: Average Plasma Naloxone Conc.
Protocol: as §1, §2

[4] = literature, cited from earlier work; for therapeutic index: relative to corresponding tertiary amines
[5] = guinea pig liver microsomal preparation; literature; cited from earlier work
[6] = background, cited from earlier work
[7] = administered to rats; literature; cited from earlier work
[8] = literature; cited from earlier work
[9] = Oral bioavailability in rats; type: in vivo; conditions: plasma; rat, oral nalbuphine; read-out: F(DRUG), nalbuphine bioavailability from orally administered parent drug
Protocol: as §1
(§3) Rats and dogs were administered the parent drug intravenously and orally, and the prodrugs were administered orally. Usually, doses were administered as aqueous solutions prepared immediately before dosing. Plasma was collected and frozen until analysis of drug concentration. The area under the plasma drug concentration versus time curve (AUC) was calculated for each animal. Bioavailability (F) was estimated by: [formula] F represents the percentage of the administered dose absorbed into plasma. Relative bioavailability (RB) of parent drug was determined by comparing the bioavailability from orally administered prodrug F(pro) with the bioavailability from orally administered parent drug F(drug). [formula]

[10] = Oral bioavailability in dogs; type: in vivo; conditions: plasma, dog, read-out: oral bioavailability of nalbuphine
Protocol: as §1, §3

[11] = rabbits administered oxycodone subcutaneously; literature; cited from earlier work
[12] = literature, cited from earlier work; remark: listed apart in the source
[13] = administered to mice; literature; cited from earlier work
[14] = administered to rabbits; literature; cited from earlier work
[15] = In vitro reduction of N-oxide to drug in rat plasma; type: in vitro ADME; conditions: 37° C., read-out: t1/2 of conversion of nalbuphine N-oxide to nalbuphine (converted)
Protocol: as §1
(§4) Prodrug was added to fresh biological medium to a concentration of 0.28 μM, incubated at 37° C., and the rate of drug appearance was measured.

[16] = In vitro reduction of N-oxide to drug in human plasma; type: in vitro ADME; conditions: 37° C., 0.28 μM
Protocol: as §1, §4

[17] = In vitro reduction of N-oxide to drug in dog plasma; type: in vitro ADME; conditions: 37° C., read-out: t1/2 of conversion of nalbuphine N-oxide to nalbuphine (converted)
Protocol: as §1, §4

[18] = In vitro reduction of N-oxide to drug in rat intestine homogenate; type: in vitro ADME; conditions: in 10 minutes, rat intestine homogenate (25%), 37° C., read-out: Conversion of nalbuphine N-oxide to nalbuphine
Protocol: as §1, §4

[19] = In vitro reduction of N-oxide to drug in rat liver homogenate; type: in vitro ADME; conditions: in 3 minutes, rat liver homogenate (25%), 37° C., read-out: Conversion of nalbuphine N-oxide to nalbuphine
Protocol: as §1, §4

With `O=C1CC[C@@]2(O)[C@H]3Cc4ccc(O)c5c4[C@@]2(CC[N+]3([O-])CC2CC2)[C@H]1O5` (stereo partly drawn) [Naltrexone N-oxide] the “Average Plasma Naltrexone Conc.” value ([1]; 0.25 hours) was 424 ng/mL, the “Average Plasma Naltrexone Conc.” value ([1]; 0.5 hours) was 752 ng/mL and the “Average Plasma Naltrexone Conc.” value ([1]; 1 hour) was 713 ng/mL. For the same molecule, the “Average Plasma Naltrexone Conc.” value ([1]; 1.5 hours) was 559 ng/mL, the “Average Plasma Naltrexone Conc.” value ([1]; 2 hours) was 484 ng/mL and the “Average Plasma Naltrexone Conc.” value ([1]; 3 hours) was 251 ng/mL. The “Average Plasma Naltrexone Conc.” value ([1]; 4 hours) was 110 ng/mL, the “Average Plasma Naltrexone Conc.” value ([1]; 6 hours) was 24 ng/mL and the “Average Plasma Naltrexone Conc.” value ([1]; 8 hours) was 8 ng/mL.

In the case of `CC[N+]([O-])(CC)CC(=O)N1CCN2C(=O)c3ccccc3C12c1ccccc1` (stereo not drawn), the pharmacological properties ([2]; Swiss Patent No. 481,124) is listed as “analgesic, sedative, antitussive, hypotensive, and spasmolytic properties”.

In the case of `C=CC[N+]1([O-])CC[C@]23c4c5ccc(O)c4O[C@H]2C(=O)CC[C@@]3(O)[C@H]1C5` (stereo partly drawn) [Naloxone N-oxide, naloxone N-oxide], the “Oral naloxone bioavailability when administered as the N-oxide, relative to naloxone” value ([3]; oral) is reported as “improved”, the concentration at 0.5 h [3] is reported as 0.947 µg/mL and the concentration at 1 h [3] is reported as 1.22 µg/mL. It also gave a concentration at 2 h [3] of 0.797 µg/mL, a concentration at 3 h [3] of 0.289 µg/mL and a concentration at 4 h [3] of 0.107 µg/mL. It also gave a concentration at 6 h [3] of 0.022 µg/mL and a concentration at 8 h [3] of 0.006 µg/mL.

For `O=C1CC[C@@]2(O)[C@H]3Cc4ccc(O)c5c4[C@@]2(CCN3CC2CC2)[C@H]1O5` [Naltrexone, (-)-17-(Cyclopropylmethyl)-4,5α-epoxy-3,14-dihydroxymorphinan-6-one], the “Average Plasma Naltrexone Conc.” value ([1]; 0.25 hours) was 9 ng/mL, the “Average Plasma Naltrexone Conc.” value ([1]; 0.5 hours) was 9 ng/mL and the “Average Plasma Naltrexone Conc.” value ([1]; 1 hour) was 4 ng/mL. The “Average Plasma Naltrexone Conc.” value ([1]; 1.5 hours) was 4 ng/mL, the “Average Plasma Naltrexone Conc.” value ([1]; 2 hours) was 0 ng/mL and the “Average Plasma Naltrexone Conc.” value ([1]; 3 hours) was 0 ng/mL. The “Average Plasma Naltrexone Conc.” value ([1]; 4 hours) was 0 ng/mL, the “Average Plasma Naltrexone Conc.” value ([1]; 6 hours) was 0 ng/mL and the “Average Plasma Naltrexone Conc.” value ([1]; 8 hours) was 0 ng/mL.

For `COc1ccc2c(c1)[C@@]13CCCC[C@H]1[C@@H](C2)[N+](C)([O-])CC3` (stereo partly drawn) [3-methoxy-N-methylmorphinan N-oxide], the therapeutic index [4] is given as “higher therapeutic index than the corresponding tertiary amines”.

In the case of 3-methyl-morphine [Codeine], the “conversion to N-oxide” value [5] is given as “converted in part to the corresponding N-oxides”, the “oral:parenteral potency ratio” value ([6]; relative to morphine) is given as “much higher oral:parenteral potency ratio than morphine” and the “metabolism to N-oxide” value [7] is given as “partially metabolized to the N-oxides”.

In the case of `C[N+]1([O-])CC[C@]23c4c5ccc(O)c4O[C@H]2[C@@H](O)C=C[C@H]3[C@H]1C5` (stereo partly drawn) [Morphine N-oxide], the analgesic activity [2] is listed as “either less active or inactive as an analgesic”, the toxicity [4] is listed as “somewhat lower toxicity than morphine” and the “reduction of N-oxide to tertiary amine” value [7] is listed as “partially reduced to morphine”. For the same molecule, the antitussive activity [8] was “effective antitussive”.

In the case of `C[N+]1([O-])CC[C@]23CCCC[C@H]2[C@H]1Cc1ccc(O)cc13` (stereo partly drawn) [3-hydroxy-N-methylmorphinan N-oxide], the therapeutic index [4] is listed as “higher therapeutic index than the corresponding tertiary amines”.

For `COc1ccc2c3c1O[C@H]1C(=O)CC[C@@]4(O)[C@@H](C2)N(C)CC[C@]314` [Oxycodone], the oral potency [6] is given as “similarly good oral potency”.

For `C=CCN1CC[C@]23c4c5ccc(O)c4O[C@H]2C(=O)CC[C@@]3(O)[C@H]1C5` [Naloxone, (-)-17-Allyl-4,5α-epoxy-3,14-dihydroxymorphinan-6-one], the concentration at 0.5 h [3] was 0.451 µg/mL, the concentration at 1 h [3] was 0.176 µg/mL and the concentration at 2 h [3] was 0.065 µg/mL. The concentration at 3 h [3] was 0.03 µg/mL, the concentration at 4 h [3] was 0.01 µg/mL and the concentration at 6 h [3] was 0.01 µg/mL. The concentration at 8 h [3] was 0.005 µg/mL.

In the case of `Oc1ccc2c3c1O[C@H]1[C@@H](O)CC[C@@]4(O)[C@@H](C2)N(CC2CCC2)CC[C@]314` [Nalbuphine, (-)-17-(Cyclobutylmethyl)-4,5α-epoxymorphinan-3,6α,14-triol], the bioavailability [9] is reported as 2.7 ± 0.4% and the bioavailability [10] is reported as 5.4%.

For `CCC(=O)OC1(c2ccccc2)CC[N+](C)([O-])CC1` (stereo not drawn) [N-oxide of 1-methyl-4-phenyl-4-propionoxypiperidine HCl], the “duration of analgesic activity” value ([2]; relative to dolantin HCl) is given as “of longer duration”, the analgesic activity [2] is given as “analgesic activity equal to that of dolantin HCl” and the toxicity [4] is given as “Toxicity was also less”.

For `COc1ccc2c3c1O[C@H]1C(=O)CC[C@@]4(O)[C@@H](C2)[N+](C)([O-])CC[C@]314` (stereo partly drawn) [oxycodone N-oxide], the “form of metabolite in urine” value [11] is listed as “found only in the free, unconjugated form”.

In the case of `C[N+]1([O-])CCC[C@H]1c1cccnc1` (stereo partly drawn) [nicotine-1'-N-oxide], the reduction to nicotine ([12]; man, oral versus intravenous) is listed as “partially reduced to nicotine in man after oral administration, but not after intravenous administration” and the first-pass phenomenon ([12]; oral) is listed as “substantially avoids the first-pass phenomenon seen with oral nicotine”.

For `CCC(=O)OC1(c2ccccc2)CC[N+](C)([O-])CC1` (stereo not drawn) [N-oxide of 1-methyl-4-phenyl-4-piperidinol propionate], the “reduction of N-oxide to tertiary amine” value [13] is given as “partially reduced to the tertiary amine”, the “reduction of N-oxide to tertiary amine” value [14] is given as “partially reduced to the tertiary amine” and the “reduction of N-oxide to tertiary amine” value [7] is given as “partially reduced to the tertiary amine”.

With `[O-][N+]1(CC2CCC2)CC[C@]23c4c5ccc(O)c4O[C@H]2[C@@H](O)CC[C@@]3(O)[C@H]1C5` (stereo partly drawn) [Nalbuphine N-oxide] the half-life at 0.28 µM [15] was 6 h, the “Rate of conversion of nalbuphine N-oxide to nalbuphine” value [16] was “negligible” and the half-life at 0.28 µM [17] was 53.7 h. The metabolised at 10 min, 0.28 µM [18] was 100% and the metabolised at 0.05 h, 0.28 µM [19] was 100%.
